The text below walks through data of patent publication US20240156800A1, “EP300 DEGRADER AND USES THEREOF IN NEUROBLASTOMA” (DANA-FARBER CANCER INSTITUTE, INC., priority 2021, published 2024).

The structures appear in SMILES notation.

One test has as its target His-tagged CRBN (Homo sapiens, UniProt Q96SW2). As to the kind of experiment: AlphaLISA assay with biotinylated pomalidomide and His-tagged CRBN. The test is classed as binding. The settings on record: competition with biotinylated pomalidomide. On the procedure: To determine whether JQAD1 interacts with the E3 ligase receptor CRBN, the AlphaLISA® platform was used to perform AlphaLISA® fluorescent assays using biotinylated pomalidomide bound to beads and His-tagged CRBN (Yasgar et al. Methods Mol. Biol. 1439:77-98 (2016)). […] Next, biotinylated JQAD1 (Biotin-JQAD1, Scheme 2) was synthesized and incubated with Kelly cell lysates, followed by streptavidin-based purification. […] PROTAC®s may acquire preferential specificity for one of two possible target enzymes due to restricted three-dimensional interactions, as noted in Burslem and Crews, Cell 181:102-14 (2020).
Assays were performed with minimal modifications from the manufacturer's protocol (PerkinElmer®, USA). Briefly, a 2× solution of components with final concentrations of CRBN-DDB1 at 50 nM, Ni-coated Acceptor Beads at 20 μg/ml, and 15 nM biotinylated-pomalidomide were added in […] to 384-well plates (AlphaPlate-384, PerkinElmer®, USA). 100 nL of compound in DMSO from stock plates were added by pin transfer using a Janus Workstation (PerkinElmer®, USA). Streptavidin-coated donor beads (20 μg/ml final) were added to the solution, followed by incubation at room temperature for 1 hour, and reading on an Envision 2104 (PerkinElmer®, USA), by the manufacturer's protocol.
For orientation: Bead proximity is the source of the signal in Alpha formats.

The target of test [1] is T1, EP300, CRBN and CBP in Kelly cell lysates (Homo sapiens, UniProt Q09472+Q96SW2).
T1 construct: added to 500 μg of whole Kelly cell lysate; endogenous in cells; host or cells: Kelly neuroblastoma cells (whole cell lysate)
In words: Biotin-JQAD1 pulldown from Kelly cell lysates (streptavidin purification, western blotting). The format is binding. The settings on record: Kelly cell lysates co-treated with excess pomalidomide. Here is the method:
Biotin-JQAD1, synthesized below, was added to 500 μg of whole Kelly cell lysate prepared in immunoprecipitation (IP) lysis buffer (Pierce™ Biotechnology), and incubated for 16 h at 4° C. with end-over-end mixing. One hundred μL of high-capacity streptavidin agarose resin (Pierce™ Biotechnology) was packed into a 1.5 mL Eppendorf tube®, washed three times with cold PBS, prior to addition of cell lysate. Lysate was incubated at room temperature for 10 minutes prior to centrifugation and washing, followed by elution in NuPAGE™ LDS sample buffer with reducing agent (Thermo-Fisher Scientific). Samples were processed by sodium dodecyl sulphate-polyacrylamide gel electrophoresis (SDS-PAGE) as above and blotted using anti-EP300, anti-CRBN, or anti-CBP antibodies.
In general terms: Immunoblotting shows a protein as a band on a membrane.

Test [2] addresses T2, EP300 (Homo sapiens, UniProt Q09472).
T2 construct: Cells growing in culture were lysed for whole cell lysates; endogenous in cells; host or cells: Kelly, NGP, SIMA, BE2C neuroblastoma cells; Kelly xenografts in NSG mice
As to the kind of experiment: Immunohistochemistry of EP300 in Kelly cell xenografts. The test is classed as in vivo. The settings on record: 40 mg/Kg once daily. On the procedure: Separately, eight animals were xenografted as described above, and treated with vehicle (n=4) or JQAD1 (n=4) at 40 mg/kg IP daily for 14 days. These animals were sacrificed at day 14, following which tumor was extracted, and divided for immunohistochemical analysis or analysis of RNA expression by RNA sequencing (RNA-seq). Immunohistochemistry was performed on the Leica® Bond™ III automated staining platform. Antibody EP300 from Cell Signaling Technology®, catalog number 86377, clone D8Z4E, was run at 1:50 dilution using the Leica® Biosystems Refine Detection Kit with citrate antigen retrieval. Antibody KAT3A/CBP (catalog number ab2832, polyclonal, Abcam) was run at 1:200 using the Leica® Biosystems Refine Detection Kit with ethylenediaminetetraacetic acid (EDTA) antigen retrieval.

Test [3] has as its target T3, EP300 (Mus musculus, UniProt B2RWS6).
T3 construct: from tissue; host or cells: liver of Balb/c Crbn^ILE391VAL knock-in mice
As to the kind of experiment: Immunohistochemistry of EP300 in liver of Crbn ILE391VAL knockin mice. The test is classed as in vivo. The settings on record: 40 mg/Kg IP daily, 14 days. Here is the method: For toxicity studies, four female CD1 mice (Charles River Laboratories) were injected intraperitoneally (IP) with single doses of 10 mg/Kg (R,S)-JQAD1 solubilized in 10% hydroxypropyl β-cyclodextrin (Sigma-Aldrich®) in sterile water. Following injection, blood concentration of (R,S)-JQAD1 was measured by serial measurements of animal serum at time points out to 24 h, by liquid chromatography with tandem mass spectrometry (LC-MS/MS) analysis. Pharmacokinetics were performed at ChemPartner in Shanghai, China, using LC-MS/MS method and pharmacokinetics parameters (Tmax, Cmax, T1/2, AUC, etc.) calculated with WinNonlin® V 6.2 statistics software (Pharsight Corporation) using a noncompartmental model. For maximally tolerated dose (MTD) testing, six female CD1 mice were treated with daily IP doses of (R,S)-JQAD1 at 10, 20, or 40 mg/kg. Animals were monitored for animal weight, grooming and behavior daily without noted effects. […] Animal weights, behavior and grooming were monitored daily, for a total of 21 days. […] Blood samples were obtained by retro-orbital puncture and blood analyzed at the Small Animal Imaging Facility at Beth Israel Deaconess Medical Center (Boston, MA), on a Hemavet® 9500FS (Drew Scientific) for blood counts, creatinine, AST, ALT, ALP, GGTP, and BUN measurements. […]

His-tagged CRBN, sequence (Q96SW2 whole entry): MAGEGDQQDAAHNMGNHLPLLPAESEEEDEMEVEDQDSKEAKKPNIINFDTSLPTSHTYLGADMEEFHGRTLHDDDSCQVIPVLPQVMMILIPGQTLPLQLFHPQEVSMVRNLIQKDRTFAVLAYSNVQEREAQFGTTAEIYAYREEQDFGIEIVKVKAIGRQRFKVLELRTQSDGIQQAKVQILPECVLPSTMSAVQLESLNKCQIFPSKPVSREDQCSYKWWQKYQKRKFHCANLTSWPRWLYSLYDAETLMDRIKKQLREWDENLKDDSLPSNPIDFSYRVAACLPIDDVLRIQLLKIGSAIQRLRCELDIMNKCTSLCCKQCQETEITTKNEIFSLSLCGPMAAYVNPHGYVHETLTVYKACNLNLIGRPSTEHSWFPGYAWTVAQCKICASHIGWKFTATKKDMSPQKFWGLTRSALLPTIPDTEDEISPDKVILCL
His-tagged CRBN, sequence (Q16531 whole entry partner): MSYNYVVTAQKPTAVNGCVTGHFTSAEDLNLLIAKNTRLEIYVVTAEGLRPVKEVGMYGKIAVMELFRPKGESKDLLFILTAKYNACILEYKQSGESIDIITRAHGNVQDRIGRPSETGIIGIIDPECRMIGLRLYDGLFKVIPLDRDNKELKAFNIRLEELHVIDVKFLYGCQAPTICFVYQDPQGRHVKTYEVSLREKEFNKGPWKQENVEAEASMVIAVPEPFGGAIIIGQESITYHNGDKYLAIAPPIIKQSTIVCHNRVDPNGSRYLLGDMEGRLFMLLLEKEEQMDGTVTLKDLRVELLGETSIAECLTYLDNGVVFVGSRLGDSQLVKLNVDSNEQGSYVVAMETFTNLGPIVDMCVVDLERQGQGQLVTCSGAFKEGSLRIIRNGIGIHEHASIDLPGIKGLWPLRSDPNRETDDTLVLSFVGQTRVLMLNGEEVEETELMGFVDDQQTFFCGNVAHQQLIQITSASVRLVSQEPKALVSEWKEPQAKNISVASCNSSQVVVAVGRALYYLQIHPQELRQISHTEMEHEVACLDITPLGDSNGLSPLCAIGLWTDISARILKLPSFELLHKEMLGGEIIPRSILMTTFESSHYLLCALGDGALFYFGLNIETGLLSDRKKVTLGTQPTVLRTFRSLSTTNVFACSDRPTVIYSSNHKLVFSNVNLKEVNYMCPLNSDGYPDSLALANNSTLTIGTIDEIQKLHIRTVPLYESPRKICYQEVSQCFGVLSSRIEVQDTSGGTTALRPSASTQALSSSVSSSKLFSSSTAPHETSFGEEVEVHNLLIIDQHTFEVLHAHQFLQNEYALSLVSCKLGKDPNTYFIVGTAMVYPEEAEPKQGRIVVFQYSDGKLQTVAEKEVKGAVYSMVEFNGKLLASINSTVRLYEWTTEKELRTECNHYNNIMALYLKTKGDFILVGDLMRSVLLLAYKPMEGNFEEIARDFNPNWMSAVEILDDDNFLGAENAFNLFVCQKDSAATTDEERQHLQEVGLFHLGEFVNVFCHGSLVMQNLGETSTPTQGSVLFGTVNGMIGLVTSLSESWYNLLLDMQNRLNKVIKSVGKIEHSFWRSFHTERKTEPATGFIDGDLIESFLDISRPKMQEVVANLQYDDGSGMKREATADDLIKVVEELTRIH
T3 sequence (B2RWS6 whole entry): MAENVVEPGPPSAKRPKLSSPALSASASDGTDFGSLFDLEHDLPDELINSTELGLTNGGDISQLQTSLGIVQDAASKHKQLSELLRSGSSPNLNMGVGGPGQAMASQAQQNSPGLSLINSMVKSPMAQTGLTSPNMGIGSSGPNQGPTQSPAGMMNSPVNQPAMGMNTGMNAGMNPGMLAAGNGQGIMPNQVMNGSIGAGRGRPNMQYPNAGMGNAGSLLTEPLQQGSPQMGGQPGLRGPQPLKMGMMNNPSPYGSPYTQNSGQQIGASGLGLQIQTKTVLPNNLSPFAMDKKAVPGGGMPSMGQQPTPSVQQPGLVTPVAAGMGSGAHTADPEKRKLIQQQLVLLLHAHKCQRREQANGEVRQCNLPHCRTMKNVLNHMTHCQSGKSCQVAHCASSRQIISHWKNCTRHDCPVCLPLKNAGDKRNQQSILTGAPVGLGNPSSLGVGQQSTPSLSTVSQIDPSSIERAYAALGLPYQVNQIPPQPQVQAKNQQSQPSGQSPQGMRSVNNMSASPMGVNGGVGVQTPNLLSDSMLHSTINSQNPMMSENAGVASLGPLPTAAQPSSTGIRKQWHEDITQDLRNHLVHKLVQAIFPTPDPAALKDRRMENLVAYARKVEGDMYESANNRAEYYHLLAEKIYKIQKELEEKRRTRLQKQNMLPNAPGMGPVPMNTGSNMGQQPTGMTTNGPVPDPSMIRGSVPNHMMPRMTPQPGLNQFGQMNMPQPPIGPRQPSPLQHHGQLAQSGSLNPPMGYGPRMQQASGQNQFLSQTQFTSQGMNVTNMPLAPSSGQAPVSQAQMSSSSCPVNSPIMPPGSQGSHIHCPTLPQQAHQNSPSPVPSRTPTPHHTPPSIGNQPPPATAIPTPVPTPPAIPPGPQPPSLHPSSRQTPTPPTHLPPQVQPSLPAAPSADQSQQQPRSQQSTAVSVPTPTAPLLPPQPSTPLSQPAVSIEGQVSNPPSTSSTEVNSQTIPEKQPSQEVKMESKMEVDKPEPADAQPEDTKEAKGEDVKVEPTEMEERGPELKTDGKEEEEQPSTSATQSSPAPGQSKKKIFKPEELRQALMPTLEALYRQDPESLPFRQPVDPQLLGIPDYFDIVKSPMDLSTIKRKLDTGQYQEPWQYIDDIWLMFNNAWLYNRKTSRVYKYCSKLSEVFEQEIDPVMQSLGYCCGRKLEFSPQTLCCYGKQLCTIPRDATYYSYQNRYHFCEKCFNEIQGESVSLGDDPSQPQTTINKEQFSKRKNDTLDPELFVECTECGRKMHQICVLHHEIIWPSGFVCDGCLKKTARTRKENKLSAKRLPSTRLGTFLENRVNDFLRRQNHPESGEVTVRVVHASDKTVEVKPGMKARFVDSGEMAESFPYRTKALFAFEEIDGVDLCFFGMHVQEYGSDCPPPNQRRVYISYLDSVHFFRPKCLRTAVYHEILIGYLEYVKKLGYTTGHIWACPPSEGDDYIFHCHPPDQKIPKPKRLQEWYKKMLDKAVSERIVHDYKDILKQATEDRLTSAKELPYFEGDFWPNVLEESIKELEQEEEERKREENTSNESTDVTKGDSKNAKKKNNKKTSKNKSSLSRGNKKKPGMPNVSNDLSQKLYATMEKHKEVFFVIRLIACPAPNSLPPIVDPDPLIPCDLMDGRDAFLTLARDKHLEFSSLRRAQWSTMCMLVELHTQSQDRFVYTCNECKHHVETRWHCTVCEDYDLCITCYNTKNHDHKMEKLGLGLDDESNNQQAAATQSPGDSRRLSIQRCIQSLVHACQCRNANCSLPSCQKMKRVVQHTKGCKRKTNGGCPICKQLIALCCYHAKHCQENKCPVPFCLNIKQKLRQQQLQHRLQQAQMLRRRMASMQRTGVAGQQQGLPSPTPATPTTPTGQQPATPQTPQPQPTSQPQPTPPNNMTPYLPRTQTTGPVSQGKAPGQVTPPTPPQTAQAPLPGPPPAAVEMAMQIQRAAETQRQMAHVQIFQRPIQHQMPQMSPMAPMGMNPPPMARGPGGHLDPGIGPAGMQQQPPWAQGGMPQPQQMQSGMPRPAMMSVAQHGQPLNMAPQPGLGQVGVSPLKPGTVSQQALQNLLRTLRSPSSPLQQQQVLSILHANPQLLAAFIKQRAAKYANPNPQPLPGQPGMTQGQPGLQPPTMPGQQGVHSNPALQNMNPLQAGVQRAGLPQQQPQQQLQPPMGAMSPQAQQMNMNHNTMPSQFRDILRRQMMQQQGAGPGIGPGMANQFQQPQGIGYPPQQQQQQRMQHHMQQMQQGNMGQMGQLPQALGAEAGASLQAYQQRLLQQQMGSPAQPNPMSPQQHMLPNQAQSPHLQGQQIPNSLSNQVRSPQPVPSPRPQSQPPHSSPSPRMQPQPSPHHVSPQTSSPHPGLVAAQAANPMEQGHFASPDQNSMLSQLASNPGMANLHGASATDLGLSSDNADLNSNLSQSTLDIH

As for `C[C@H](N(Cc1ccc(F)cc1)C(=O)CN1C(=O)O[C@@]2(CCc3cc(NC(=O)CCCCCCCCCCCNc4ccc5c(c4)C(=O)N(C4CCC(=O)NC4=O)C5=O)ccc32)C1=O)C(F)(F)F` (stereo partly drawn) [JQAD1, 12-((2-(2,6-dioxopiperidin-3-yl)-1,3-dioxoisoindolin-5-yl)amino)-N-((R)-3′-(2-((4-fluorobenzyl)((S)-1,1,1-trifluoropropan-2-yl)amino)-2-oxoethyl)-2′,4′-dioxo-2,3-dihydrospiro[indene-1,5′-oxazolidin]-5-yl)dodecanamide], on His-tagged CRBN, the “interaction with CRBN” value is “efficiently interacted with CRBN”. Also, the “effect of excess pomalidomide on the interaction” value in test [1] is “partial loss of the interaction between JQAD1, CRBN, and EP300”. Also, the “EP300 immunostaining of tumors” value on EP300 [2] is listed as “loss of EP300 immunostaining compared with vehicle control tumors”. In addition, the “EP300 protein expression in liver” value on EP300 [3] is “reduced EP300 protein expression levels in the liver cell nuclei”.
